MIC data for 13 compounds are collected here from DBAASP.

In brackets after ≈: the same amount, converted by molar mass.

What is called MIC is the lowest concentration that inhibits growth of the organism. Low values mean a more susceptible organism, high ones a less susceptible organism.

Assay in all cases: ≥ marks a high value that may be exact or a test limit, other limits are often not marked, values filed in µg/mL are converted to µM
Assay [1] has as its system Staphylococcus aureus USA 100.
The test system of assay [2] is Staphylococcus aureus NCTC 10788.
For assay [3], the system named is Escherichia coli NCTC 10418.
Assay [4] deals with Candida albicans NCPF 1467.
Assay [5] concerns Escherichia coli DH5alpha.
Another assay has as its system Staphylococcus xylosus.
In assay [6] the test system is Pectobacterium carotovorum subsp. carotovorum DSM 30168.
Assay [7] deals with Pseudomonas syringae pv. syringae DSM 10604.
Assay [8] relates to Clavibacter michiganensis subsp. michiganensis DSM 46294.
Assay [9] relates to Pseudomonas syringae pv. tomato DC3000.
Assay [10] has as its system Pseudomonas corrugata DSM 7228.
In assay [11] the test system is Xanthomonas vesicatoria DSM 50861.
In assay [12] the test system is Staphylococcus aureus ATCC 25923.
For assay [13], the system named is Escherichia coli KCTC 1682.
Assay [14] relates to Staphylococcus aureus USA 300.
The test system of assay [15] is Pseudomonas aeruginosa ATCC 9027.
Assay [16] deals with Candida albicans ATCC 90028.
In assay [17] the test system is Staphylococcus epidermidis KCTC 1917.
For assay [18], the system named is Pseudomonas aeruginosa KCTC 1637.
Assay [19] deals with Staphylococcus aureus KCTC 1621.
Assay [20] relates to Escherichia coli ATCC 25922.

On to `NC(=O)[C@H](CCCN=C(N)N)NC(=O)[C@H](CC(=O)O)NC(=O)[C@H](CCCN=C(N)N)NC(=O)[C@@H](N)CC(=O)O` [DRDR], for which, in [1], the MIC is at least 100 µM.

For the compound `CC[C@H](C)[C@H](NC(=O)[C@H](C)NC(=O)[C@H](CCCCN)NC(=O)[C@@H]1CCCN1C(=O)[C@@H](NC(=O)[C@H](CC(C)C)NC(=O)[C@H](CCCCN)NC(=O)[C@H](Cc1ccccc1)NC(=O)[C@H](CC(C)C)NC(=O)[C@@H](N)Cc1ccccc1)[C@@H](C)CC)C(=O)N[C@@H](CCCCN)C(=O)NCC(=O)N[C@@H](CC(C)C)C(=O)N[C@H](C(=O)N[C@@H](CCCCN)C(=O)N[C@@H](C)C(=O)N[C@@H](Cc1ccccc1)C(=O)N[C@H](C=O)CCCCN)[C@@H](C)CC` [FLFKLIPKAIKGLIKAFK], the values for the MIC in assay [2], in assay [3] and in assay [4] were 4 µM (≈ 8.24 µg/mL), 8 µM (≈ 16.5 µg/mL) and 4 µM (≈ 8.24 µg/mL), respectively.

In the case of `CC[C@H](C)[C@H](NC(=O)[C@H](C)NC(=O)[C@H](CCCCN)NC(=O)[C@@H](NC(=O)[C@H](CC(C)C)NC(=O)CNC(=O)[C@H](CCCCN)NC(=O)[C@@H](NC(=O)[C@@H](NC(=O)[C@H](CCCCN)NC(=O)[C@@H]1CCCN1C(=O)[C@@H](NC(=O)[C@H](CC(C)C)NC(=O)[C@H](CCCCN)NC(=O)[C@H](Cc1ccccc1)NC(=O)[C@H](CC(C)C)NC(=O)[C@@H](N)Cc1ccccc1)[C@@H](C)CC)C(C)C)[C@@H](C)CC)C(C)C)C(=O)N[C@@H](CCCN=C(N)N)C(=O)N[C@@H](CCCCN)C(N)=O` [FLFKLIPKVIKGLVKAIRK], the results for the MIC in assay [2], in assay [3] and in [4] were 1.81 µM (≈ 4 µg/mL), 7.23 µM (≈ 16 µg/mL) and 1.81 µM (≈ 4 µg/mL), respectively.

For `NC(=O)[C@H](CCCN=C(N)N)NC(=O)[C@H](Cc1ccccc1)NC(=O)[C@H](CCCN=C(N)N)NC(=O)[C@@H](N)Cc1ccccc1` [FRFR], in [1], the MIC is at least 100 µM.

For the compound `CC[C@H](C)[C@H](NC(=O)[C@H](CO)NC(=O)[C@H](CC(N)=O)NC(=O)[C@@H](NC(=O)[C@H](CC(C)C)NC(=O)[C@H](C)NC(=O)[C@H](CO)NC(=O)[C@H](C)NC(=O)[C@H](Cc1ccccc1)NC(=O)[C@H](CC(=O)O)NC(=O)[C@H](CCCCN)NC(=O)[C@H](C)NC(=O)CNC(=O)[C@H](CCCCN)NC(=O)[C@H](CCCCN)NC(=O)[C@H](CC(C)C)NC(=O)[C@H](CCCCN)NC(=O)[C@H](CCC(=O)O)NC(=O)[C@H](CC(C)C)NC(=O)[C@H](Cc1ccccc1)NC(=O)CN)C(C)C)C(=O)N[C@@H](CCCCN)C(=O)NCC(=O)N[C@H](C(=O)O)[C@@H](C)O` [GFLEKLKKGAKDFASALVNSIKGT], the MIC was at least 203 µM in assay [2], at least 50.7 µM in [3] and at least 101 µM in assay [4].

Consider `CC[C@H](C)[C@H](NC(=O)CN)C(=O)NCC(=O)NCC(=O)N[C@@H](C)C(=O)N[C@@H](CC(C)C)C(=O)N[C@@H](CC(C)C)C(=O)N[C@@H](CC(N)=O)C(=O)N[C@H](C(=O)NCC(=O)N[C@@H](CCCCN)C(=O)N[C@H](C(=O)N[C@@H](C)C(=O)N[C@@H](CC(C)C)C(=O)N[C@@H](CCCCN)C(=O)NCC(=O)N[C@@H](CC(C)C)C(=O)N[C@@H](C)C(=O)N[C@@H](CCCCN)C(=O)NCC(=O)N[C@@H](CC(C)C)C(=O)N[C@@H](C)C(=O)N[C@@H](CCC(=O)O)C(=O)N[C@@H](Cc1cnc[nH]1)C(=O)N[C@@H](Cc1ccccc1)C(=O)N[C@@H](C)C(=O)N[C@@H](CC(N)=O)C(N)=O)C(C)C)C(C)C` [GIGGALLNVGKVALKGLAKGLAEHFAN], for which the MIC is 3.05 µM (≈ 8 µg/mL) in assay [2], 12.2 µM (≈ 32 µg/mL) in assay [3] and 12.2 µM (≈ 32 µg/mL) in assay [4].

On to `CC[C@H](C)[C@H](NC(=O)[C@H](CCCCN)NC(=O)[C@H](CCCCN)NC(=O)[C@@H](N)CCCCN)C(=O)N[C@H](C(=O)N[C@H](C(=O)N[C@H](C(=O)N[C@H](C(=O)N[C@@H](CCCCN)C(=O)N[C@@H](CCCCN)C(=O)N[C@@H](CCCCN)C(=O)O)[C@@H](C)CC)[C@@H](C)CC)[C@@H](C)CC)[C@@H](C)CC` [KKKIIIIIKKK], for which the figures for the MIC (in [5]; with Staphylococcus xylosus) were 8 µM (≈ 10.8 µg/mL) and 0.5 µM (≈ 0.676 µg/mL), respectively.

In the case of `CC(C)[C@H](NC(=O)[C@H](CCCCN)NC(=O)[C@H](CCCCN)NC(=O)[C@@H](N)CCCCN)C(=O)N[C@H](C(=O)N[C@H](C(=O)N[C@H](C(=O)N[C@H](C(=O)N[C@@H](CCCCN)C(=O)N[C@@H](CCCCN)C(=O)N[C@@H](CCCCN)C(=O)O)C(C)C)C(C)C)C(C)C)C(C)C` [KKKVVVVVKKK], the MIC in assay [5] is at least 64 µM; against Staphylococcus xylosus, 8 µM (≈ 10.3 µg/mL).

For `CC[C@H](C)[C@H](NC(=O)[C@@H](N)CC(C)C)C(=O)N[C@@H](CCCCN)C(=O)N[C@@H](CCCN=C(N)N)C(=O)N[C@@H](CCCCN)C(=O)O` [LIKRK], the MIC (in assay [5]; with Staphylococcus xylosus) was at least 64 µM each time.

Regarding `CC[C@H](C)[C@H](NC(=O)[C@H](CC(C)C)NC(=O)[C@H](CCCN=C(N)N)NC(=O)[C@H](CCCCN)NC(=O)[C@H](CC(C)C)NC(=O)[C@H](CC(C)C)NC(=O)[C@H](CCCCN)NC(=O)[C@H](CCCCN)NC(=O)[C@H](CCCN=C(N)N)NC(=O)[C@H](CCCCN)NC(=O)[C@H](CCCCN)NC(=O)[C@@H](N)CCCN=C(N)N)C(N)=O` [RKKRKKLLKRLI], the minimum inhibitory concentration (MIC) came out at 6.33 µM (≈ 9.99 µg/mL) in assay [6]; 0.158 µM (≈ 0.25 µg/mL) in [7]; 3.16 µM (≈ 5 µg/mL) in assay [8]; 6.33 µM (≈ 9.99 µg/mL) in assay [9]; 0.316 µM (≈ 0.5 µg/mL) in assay [10]; 6.33 µM (≈ 9.99 µg/mL) in assay [11].

Consider `CC[C@H](C)[C@H](NC(=O)[C@H](CC(C)C)NC(=O)[C@@H](NC(=O)[C@H](CC(C)C)NC(=O)[C@@H](NC(=O)[C@H](CC(C)C)NC(=O)[C@H](CCCCN)NC(=O)[C@H](CCCN=C(N)N)NC(=O)[C@H](CCCCN)NC(=O)[C@@H](N)CCCN=C(N)N)[C@@H](C)CC)[C@@H](C)CC)C(=O)N[C@@H](CCCCN)C(=O)N[C@@H](CCCN=C(N)N)C(=O)N[C@@H](CCCCN)C(=O)N[C@@H](CCCN=C(N)N)C(=O)O` [RKRKLILILIKRKR], for which the MIC in assay [5] was 8 µM (≈ 14.7 µg/mL); against Staphylococcus xylosus, 0.5 µM (≈ 0.917 µg/mL).

The compound `NCCCC[C@H](NC(=O)[C@H](Cc1c[nH]c2ccccc12)NC(=O)[C@H](CCCCN)NC(=O)[C@@H](N)Cc1c[nH]c2ccccc12)C(N)=O` [WKWK] yielded a minimal inhibitory concentration (MIC) in assay [1] of at least 100 µM.

On to `NC(=O)[C@H](CCCN=C(N)N)NC(=O)[C@H](Cc1c[nH]c2ccccc12)NC(=O)[C@H](CCCN=C(N)N)NC(=O)[C@H](Cc1c[nH]c2ccccc12)NC(=O)[C@H](CCCN=C(N)N)NC(=O)[C@@H](N)Cc1c[nH]c2ccccc12` [WRWRWR], for which the MIC was 7.18 µM (≈ 7.49 µg/mL) in assay [12]; 3.83 µM (≈ 4 µg/mL) in assay [13]; 25 µM (≈ 26.1 µg/mL) in [1]; 25 µM (≈ 26.1 µg/mL) in [14]; over 100 µM in [15]; at least 100 µM in [16]. Also, the MIC in assay [17] was determined as 7.65 µM (≈ 7.99 µg/mL); in assay [18], 15.3 µM (≈ 16 µg/mL); in assay [19], 7.65 µM (≈ 7.99 µg/mL); in [20], 7.18 µM (≈ 7.49 µg/mL).
